The source of these data is PMC9307114, “Discovery and SAR analysis of phenylbenzo[d][1,3]dioxole-based proprotein convertase subtilisin/kexin type 9 inhibitors” (Journal of Enzyme Inhibition and Medicinal Chemistry, 2022).

Structures are written as SMILES.

One assay deals with PCSK9/LDLR PPI (Homo sapiens, UniProt Q8NBP7). In words: PCSK9-LDLR TR-FRET assay (PCSK9/LDLR PPI inhibitory screening). The format is binding. Conditions: 10 µM; mean of three experiments; read-out: PCSK9 percentage inhibitory rate. Here is the method:
The PCSK9/LDLR time-resolved fluorescence resonance energy transfer (TR-FRET) assay was performed to evaluate the activity of synthesised compounds in inhibition of PCSK9-LDLR binding. The A series compounds were firstly synthesised for the PCSK9/LDLR PPI inhibitory test. […] Therefore, a group of A12 derivatives (B series) were synthesised with 4-chlorobenzyl substituted in the amino group and various substitutions introduced to the carboxylic group. […] To confirm whether the 4-chloromethyl group is essential for the PPI inhibitory activity, a new series of compounds (C series) were synthesised with the 4-chloromethyl group replaced by 4-methoxymethyl moiety. The inhibitory activity was observed, most likely resulting from the 4-methoxymethyl substitution (Table 3).
The compounds were dissolved in 100% DMSO; then 2 µL of the dilution was added to a 20 µL of reaction to keep […] in all of reactions. The binding reaction was conducted at room temperature. The reaction mixture in assay buffer contains PCSK9, the indicated amount of the inhibitor, ligand LDLR, and the reaction dyes. The reaction mixture was incubated for 120 min before detection of the TR-FRET signal. Fluorescence signals for both the donor and acceptor dyes were measured using a Tecan Infinite M1000 plate reader. TR-FRET was recorded as the ratio of the fluorescence of the acceptor and the donor dyes (acceptor/donor). The TR-FRET data were analysed using Graphpad Prism software.
On the technique in general: Time-resolved FRET reads energy transfer from a long-lived donor to a nearby acceptor.

Another assay deals with HepG2 cells. Description: MTT assay on HepG2 cells. The note with it: Homo sapiens, mean of three experiments, read-out: HepG2 percentage inhibitory rate. The format is cell-based.

PCSK9/LDLR PPI, sequence (Q8NBP7 153-692): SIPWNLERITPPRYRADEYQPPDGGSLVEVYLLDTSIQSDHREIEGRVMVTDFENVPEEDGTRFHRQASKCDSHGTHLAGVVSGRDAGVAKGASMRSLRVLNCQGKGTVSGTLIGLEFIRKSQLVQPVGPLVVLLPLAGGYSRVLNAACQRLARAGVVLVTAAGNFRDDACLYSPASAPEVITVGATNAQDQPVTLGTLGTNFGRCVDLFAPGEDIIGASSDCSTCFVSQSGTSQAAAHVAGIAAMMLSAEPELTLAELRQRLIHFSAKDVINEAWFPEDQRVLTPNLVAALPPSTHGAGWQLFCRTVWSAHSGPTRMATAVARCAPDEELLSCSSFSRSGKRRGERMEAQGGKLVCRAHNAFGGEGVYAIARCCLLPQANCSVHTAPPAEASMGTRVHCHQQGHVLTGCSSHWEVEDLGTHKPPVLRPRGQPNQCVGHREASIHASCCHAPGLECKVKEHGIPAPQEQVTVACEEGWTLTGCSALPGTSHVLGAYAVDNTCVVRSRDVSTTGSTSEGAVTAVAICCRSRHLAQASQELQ
PCSK9/LDLR PPI, sequence (Q8NBP7 31-152 partner limits assumed): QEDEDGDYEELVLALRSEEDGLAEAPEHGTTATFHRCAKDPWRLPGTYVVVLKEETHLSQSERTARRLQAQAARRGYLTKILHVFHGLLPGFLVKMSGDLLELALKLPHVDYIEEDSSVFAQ

In the case of `COc1ccc(NC(=O)c2ccc(-c3cc4c(cc3NC(=O)c3ccc(CCl)cc3)OCO4)cc2)cc1OC` [B7, 4-(Chloromethyl)-N-(6-(4-((3,4-dimethoxyphenyl)carbamoyl)phenyl)benzo[d][1,3]dioxol-5-yl)benzamide], the inhibition at 10 µM at PCSK9/LDLR PPI is 16.3 ± 0.62%; in the assay with HepG2 cells, 5.45 ± 0.39%.
Regarding `O=C(Nc1ccc(Br)cc1)c1ccc(-c2cc3c(cc2NC(=O)c2ccc(CCl)cc2)OCO3)cc1` [B2, N-(4-bromophenyl)-4-(6-(4-(chloromethyl)benzamido)benzo[d][1,3]dioxol-5-yl)benzamide], the inhibition at 10 µM at PCSK9/LDLR PPI amounted to 25.5 ± 2.22%; in the assay on HepG2 cells, 15.6 ± 1.24%.
Take `COc1cc(NC(=O)c2ccc(-c3cc4c(cc3NC(=O)c3ccccc3)OCO4)cc2)cc(OC)c1OC` [A3, 4-(6-Benzamidobenzo[d][1,3]dioxol-5-yl)-N-(3,4,5-trimethoxyphenyl)benzamide]: the inhibition at 10 µM was determined as 5.06 ± 0.09% on PCSK9/LDLR PPI and 8.78 ± 0.37% with HepG2 cells.
Taken in the same sequence, the figures for `COc1cc(NC(=O)c2ccc(-c3cc4c(cc3NC(=O)c3cc(F)ccc3F)OCO4)cc2)cc(OC)c1OC` [A16, 2,5-Difluoro-N-(6-(4-((3,4,5-trimethoxyphenyl)carbamoyl)phenyl)benzo[d][1,3]dioxol-5-yl)benzamide] were 4.22 ± 0.25% and 3.33 ± 0.23%.
In the same order, the values of `COc1cc(NC(=O)c2ccc(-c3cc4c(cc3NC(=O)c3ccccc3C(F)(F)F)OCO4)cc2)cc(OC)c1OC` [A4, 2-(Trifluoromethyl)-N-(6-(4-((3,4,5-trimethoxyphenyl)carbamoyl)phenyl)benzo[d][1,3]dioxol-5-yl)benzamide] are 5.28 ± 0.4% and 7.93 ± 1.04%.
Taken in the same sequence, the figures for `COCc1ccc(C(=O)Nc2cc3c(cc2-c2ccc(C(=O)Nc4ccc(N5CCN(C)CC5)cc4)cc2)OCO3)cc1` [C9, 4-(Methoxymethyl)-N-(6-(4-((4-(4-methylpiperazin-1-yl)phenyl)carbamoyl)phenyl)benzo[d][1,3]dioxol-5-yl)benzamide] were 3.75 ± 0.33% and 6.22 ± 0.24%.
As for `O=C(Nc1ccc(-c2ccccc2)cc1)c1ccc(-c2cc3c(cc2NC(=O)c2ccc(CCl)cc2)OCO3)cc1` [B11, N-([1,1′-biphenyl]-4-yl)-4-(6-(4-(chloromethyl)benzamido)benzo[d][1,3]dioxol-5-yl)benzamide], the inhibition at 10 µM on PCSK9/LDLR PPI came to 6.92 ± 0.53%; with HepG2 cells it was 3.26 ± 0.22%.
In the same order, the values of `COc1cc(NC(=O)c2ccc(-c3cc4c(cc3NC(=O)c3ccccc3F)OCO4)cc2)cc(OC)c1OC` [A5, 2-Fluoro-N-(6-(4-((3,4,5-trimethoxyphenyl)carbamoyl)phenyl)benzo[d][1,3]dioxol-5-yl)benzamide] are 4.77 ± 0.31% and 5.96 ± 0.66%.
Taken in the same sequence, the figures for `CCCCCc1ccc(NC(=O)c2ccc(-c3cc4c(cc3NC(=O)c3ccc(CCl)cc3)OCO4)cc2)cc1` [B10, 4-(Chloromethyl)-N-(6-(4-((4-pentylphenyl)carbamoyl)phenyl)benzo[d][1,3]dioxol-5-yl)benzamide] were 5.87 ± 0.01% and 2.4 ± 0.19%.
Taken in the same sequence, the figures for `O=C(Nc1cc2c(cc1-c1ccc(C(=O)N3CCN(c4ccccc4)CC3)cc1)OCO2)c1ccc(CCl)cc1` [B13, 4-(Chloromethyl)-N-(6-(4-(4-phenylpiperazine-1-carbonyl)phenyl)benzo[d][1,3]dioxol-5-yl)benzamide] were 5.64 ± 0.04% and 3.21 ± 0.26%.
Regarding `COCc1ccc(C(=O)Nc2cc3c(cc2-c2ccc(C(=O)N4CCN(c5ccc(F)cc5)CC4)cc2)OCO3)cc1` [C7, N-(6-(4-(4-(4-fluorophenyl)piperazine-1-carbonyl)phenyl)benzo[d][1,3]dioxol-5-yl)-4-(methoxymethyl)benzamide], the inhibition at 10 µM was determined as 33.4 ± 1.52% on PCSK9/LDLR PPI and 12.8 ± 1.07% in the assay on HepG2 cells.
In the same order, the values of `COCc1ccc(C(=O)Nc2cc3c(cc2-c2ccc(C(=O)Nc4cc(OC)cc(OC)c4)cc2)OCO3)cc1` [C1, N-(3,5-dimethoxyphenyl)-4-(6-(4-(methoxymethyl)benzamido)benzo[d][1,3]dioxol-5-yl)benzamide] are 21.6 ± 1.67% and 6.21 ± 0.22%.
Taken in the same sequence, the figures for `COc1cc(NC(=O)c2ccc(-c3cc4c(cc3NC(=O)c3ccccc3Cl)OCO4)cc2)cc(OC)c1OC` [A7, 2-Chloro-N-(6-(4-((3,4,5-trimethoxyphenyl)carbamoyl)phenyl)benzo[d][1,3]dioxol-5-yl)benzamide] were 5.16 ± 0.31% and 12.4 ± 1.07%.
Taken in the same sequence, the figures for `CC(C)N1CCN(C(=O)c2ccc(-c3cc4c(cc3NC(=O)c3ccc(CCl)cc3)OCO4)cc2)CC1` [B19, 4-(Chloromethyl)-N-(6-(4-(4-isopropylpiperazine-1-carbonyl)phenyl)benzo[d][1,3]dioxol-5-yl)benzamide] were 5.82 ± 0.31% and 8.38 ± 0.81%.
On to `COc1cc(NC(=O)c2ccc(-c3cc4c(cc3NC(=O)c3cccc(C(F)(F)F)c3)OCO4)cc2)cc(OC)c1OC` [A11, 3-(Trifluoromethyl)-N-(6-(4-((3,4,5-trimethoxyphenyl)carbamoyl)phenyl)benzo[d][1,3]dioxol-5-yl)benzamide], for which the inhibition at 10 µM on PCSK9/LDLR PPI was 35.2 ± 3.15%; in the assay on HepG2 cells, 7.97 ± 0.08%.
Taken in the same sequence, the figures for `COc1cc(NC(=O)c2ccc(-c3cc4c(cc3NC(=O)c3cccc(Br)c3)OCO4)cc2)cc(OC)c1OC` [A8, 3-Bromo-N-(6-(4-((3,4,5-trimethoxyphenyl)carbamoyl)phenyl)benzo[d][1,3]dioxol-5-yl)benzamide] were 5.88 ± 0.12% and 3.66 ± 0.24%.
Taken in the same sequence, the figures for `COc1cc(NC(=O)c2ccc(-c3cc4c(cc3NC(=O)c3ccc(C(F)(F)F)cc3)OCO4)cc2)cc(OC)c1OC` [A2, 4-(Trifluoromethyl)-N-(6-(4-((3,4,5-trimethoxyphenyl)carbamoyl)phenyl)benzo[d][1,3]dioxol-5-yl)benzamide] were 23.1 ± 2.17% and 16.4 ± 1.55%.
